Experiments:
[1] = system: DSS-induced colitis in mice; test: DSS-induced mouse colitis model; assay type: in vivo
Experimental: FIGS. 4A-4I. The STAT3 palmitoylation-depalmitoylation cycle aggravates colitis. (A), (B) Human PBMCs from 26 healthy participants (Ctrl), 24 patients with Crohn's disease (CD; 7 remission stage (rem.) and 17 active stage (act.)) and 10 patients with ulcerative colitis (UC; 1 remission stage and 9 active stage) were extracted. LYPLA2 and ZDHHC7 mRNA levels were analysed using qPCR. The relative p-STAT3 levels were quantified by western blots. c, d, The correlations between IL17A (C) or p-STAT3 (D) and the mRNA levels of the indicated genes in 34 patients with IBD. (E), (F), C57BL/6J mice were treated with 2.5% DSS in drinking water ad libitum and ML349 was intraperitoneally injected daily on the day that DSS treatment started. Body weight changes (E) and TH17 cell levels in the spleen (F) were evaluated. (G), (H), Wild-type and DHHC7-knockout mice were treated with 2.5% DSS in drinking water ad libitum. Body weight changes (G) and TH17 cell levels in the spleen (H) were evaluated. (I), Model of the regulation of STAT3 by the palmitoylation-depalmitoylation cycle. Palmitoylation of STAT3 by DHHC7 promotes the membrane recruitment and phosphorylation of STAT3. APT2 promotes the nuclear translocation of p-STAT3 by selectively depalmitoylating p-STAT3 over STAT3. The palmitoylation-depalmitoylation cycle drives the membrane localization and phosphorylation of STAT3, and the nuclear translocation of p-STAT3. The direction of the cycle is ensured by the preference of APT2 for p-STAT3 over STAT3. Data are expressed as the mean±s.e.m. *P<0.05; **P<0.01.
The mouse protocol 2019-0009 was approved by the Institutional Animal Care and Use Committee (IACUC) at Cornell University. All animals were housed under specific-pathogen-free conditions following the regulations of the IACUC. Mice (6-8 weeks old) were randomized into different groups (8 mice per group, mixed sex) as indicated. Colitis was induced by treating with 3.0% DSS (MP Biomedicals) in their drinking water ad libitum. ML349 solution was intraperitoneally injected into the mice at the indicated doses every other day. All mice were euthanized and the spleens were isolated to detect T cells. The distance from caecum to anus was measured. The colon was fixed in 4% paraformaldehyde for pathological examination. The study was not blinded.
The inventors tested whether the pharmacological inhibition of APT2 with ML349 could reduce dextran sulfate sodium (DSS)-induced colitis in mice, an experimental model for IBD.

NZB/W F1 female mice = test: Lupus nephrosis mouse model (proteinuria analysis); assay type: in vivo; details: 25 mg/Kg IP three times per week for 8 weeks, from 25-week age
Experimental: FIGS. 17A-17B. Lupus Nephrosis Mouse Model: APT2 inhibitor ML349 decreases protein concentration in the mouse urine. (A) Protein concentration in urine (all data points), (B) Protein concentration in urine (averaged, with error bars). NZB/W F1 female mice at 25-week were administered via IP injection with either vehicle solution (DMSO+PBS) or APT2 inhibitor ML349 at 25 mg/Kg three times per week for 8 weeks. After 4 weeks of treatment, mice were evaluated for lupus incidence weekly through proteinuria analysis by collecting the urines and measuring the protein concentrations in the urine.
NZB/W F1 female mice at 25-week were administered via IP injection with either vehicle solution (DMSO+PBS) or APT2 inhibitor ML349 at 25 mg/Kg three times per week for 8 weeks. After 4 weeks of treatment, mice were evaluated for lupus incidence weekly through proteinuria analysis by collecting the urines and measuring the protein concentrations in the urine. […] This was the first time that the inventors did this experiment and after the experiment began, the inventors noticed that at 25 weeks, the disease phenotype was already very severe. It is expected that if the ML349 treatment is begun earlier, the effect might be more obvious and significant.

[2] = DSS treatment followed by ML349 treatment, intraperitoneal
[3] = pretreatment with ML349 followed by treatment with DSS

## COc1ccc(N2CCN(C(=O)c3cc4c(s3)-c3ccccc3S(=O)(=O)C4)CC2)cc1 [ML349]
[1]; [2]
  colon shortening: significantly attenuated
  weight loss: significantly attenuated
[1]; DSS-treated mice, spleen
  levels of TH17 cells in mouse splenocytes: significantly decreased
[1]; [3]
  survival rate: increased the survival rate
  weight loss: significantly attenuated weight loss
NZB/W F1 female mice
  protein concentrations in the urine: decrease

Source: US20230159931A1, “TARGETING THE PALMOTYLATION/DEPALMOTYLATION CYCLE TO TREAT INFLAMMATORY DISEASES” (CORNELL UNIVERSITY, priority 2020, published 2023)
